≈ marks a conversion by molar mass, not a printed value.
Tests used:
Test in all cases: in vitro antibacterial evaluation, MIC by broth dilution
Type in all cases: cell-based
Escherichia coli = conditions: 18 hours at 35° C., strain ATCC 25922
Procedure, shortened: (§1)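 Step 1: dilute antibiotic across 64-0.06 μg/mL in Muller-Hinton II […]. Step 2: inoculate at 5×10^5 CFU/mL.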

Enterococcus sp. = conditions: broth dilution, 18 hours at 35° C.
Procedure, shortened: as §1

Streptococcus sp. = conditions: broth dilution, 18 hours at 35° C.
Procedure, shortened: as §1

Staphylococcus sp. = conditions: broth dilution, 18 hours at 35° C.
Procedure, shortened: as §1

[1] = Enterococcus faecalis (ATCC 29212)
[2] = Enterococcus faecalis (GC 2242)
[3] = Enterococcus faecalis (GC 4552)
[4] = Enterococcus faecalis (GC 4553)
[5] = Enterococcus faecalis (GC 4554)
[6] = Streptococcus agalactiae (GC 4564)
[7] = Streptococcus pneumoniae (GC 4565)
[8] = Streptococcus pyogenes (ID-3187)
[9] = inoculum 5×10^5 CFU/mL, strain GC 1131

## CC(C)CC1OCC2OC(OC3C(CO)OC(Oc4ccc(CC5NC(=O)C(C(C)c6ccccc6)NC(=O)CNC(=O)C(CO)NC(=O)C(C(O)C6CNC(=N)N6C6OC(CO)C(O)C(O)C6O)NC(=O)C(C(O)C6CNC(=N)N6)NC5=O)cc4)C(O)C3O)C(O)C(O)C2O1 (stereo not drawn) [Example 107, Cyclo[glycyl-β-methylphenylalanyl-O-[4-O-[4,6-O-(3-methylbutylidene)hexopyranosyl]-hexopyranosyl]tyrosyl-3-(2-iminoimidazolidin-4-yl)seryl-3-(3-hexopyranosyl-2-iminoimidazolidin-4-yl)serylseryl]]
Escherichia coli
  MIC Escherichia coli (ATCC 25922): 64 µg/mL (≈ 46.9 µM)
Enterococcus sp.; Enterococcus avium (GC 4558)
  MIC Enterococcus avium (GC 4558): 8 µg/mL (≈ 5.87 µM)
Enterococcus sp.; [1]
  MIC Enterococcus faecalis (ATCC 29212): 4 µg/mL (≈ 2.93 µM)
Enterococcus sp.; [2]
  MIC Enterococcus faecalis (GC 2242): 4 µg/mL (≈ 2.93 µM)
Enterococcus sp.; [3]
  MIC Enterococcus faecalis (GC 4552): 4 µg/mL (≈ 2.93 µM)
Enterococcus sp.; [4]
  MIC Enterococcus faecalis (GC 4553): 8 µg/mL (≈ 5.87 µM)
Enterococcus sp.; [5]
  MIC Enterococcus faecalis (GC 4554): 4 µg/mL (≈ 2.93 µM)
Enterococcus sp.; Enterococcus faecium (GC 2243)
  MIC Enterococcus faecium (GC 2243): 8 µg/mL (≈ 5.87 µM)
Enterococcus sp.; Enterococcus faecium (GC 4556)
  MIC Enterococcus faecium (GC 4556): 4 µg/mL (≈ 2.93 µM)
Enterococcus sp.; Enterococcus faecium (GC 4557)
  MIC Enterococcus faecium (GC 4557): 2 µg/mL (≈ 1.47 µM)
Enterococcus sp.; strain ATCC 29212
  MIC Enterococcus faecalis (ATCC 29212): 4 µg/mL (≈ 2.93 µM)
Enterococcus sp.; strain GC 2242
  MIC Enterococcus faecalis (GC 2242): 4 µg/mL (≈ 2.93 µM)
Enterococcus sp.; strain GC 2243
  MIC Enterococcus faecium (GC 2243): 8 µg/mL (≈ 5.87 µM)
Enterococcus sp.; strain GC 4552
  MIC Enterococcus faecalis (GC 4552): 4 µg/mL (≈ 2.93 µM)
Enterococcus sp.; strain GC 4553
  MIC Enterococcus faecalis (GC 4553): 8 µg/mL (≈ 5.87 µM)
Enterococcus sp.; strain GC 4554
  MIC Enterococcus faecalis (GC 4554): 4 µg/mL (≈ 2.93 µM)
Enterococcus sp.; strain GC 4556
  MIC Enterococcus faecium (GC 4556): 4 µg/mL (≈ 2.93 µM)
Enterococcus sp.; strain GC 4557
  MIC Enterococcus faecium (GC 4557): 2 µg/mL (≈ 1.47 µM)
Enterococcus sp.; strain GC 4558
  MIC Enterococcus avium (GC 4558): 8 µg/mL (≈ 5.87 µM)
Streptococcus sp.; [6]
  MIC Streptococcus agalactiae (GC 4564): 0.25 µg/mL (≈ 0.183 µM)
Streptococcus sp.; [7]
  MIC Streptococcus pneumoniae (GC 4565): <0.12 µg/mL
Streptococcus sp.; [8]
  MIC Streptococcus pyogenes (ID-3187): 0.25 µg/mL (≈ 0.183 µM)
Streptococcus sp.; strain GC 4564
  MIC Streptococcus agalactiae (GC 4564): 0.25 µg/mL (≈ 0.183 µM)
Streptococcus sp.; strain GC 4565
  MIC Streptococcus pneumoniae (GC 4565): <0.12 µg/mL
Streptococcus sp.; strain ID-3187
  MIC Streptococcus pyogenes (ID-3187): 0.25 µg/mL (≈ 0.183 µM)
Staphylococcus sp.
  MIC Coagulase Negative Staphylococcus (GC 4547): 1 µg/mL (≈ 0.733 µM)
  MIC Coagulase Negative Staphylococcus (GC 4548): 1 µg/mL (≈ 0.733 µM)
  MIC Coagulase Negative Staphylococcus (GC 4549): 1 µg/mL (≈ 0.733 µM)
  MIC Coagulase Negative Staphylococcus (GC 4551): 1 µg/mL (≈ 0.733 µM)
  MIC Coagulase Negative Staphylococcus (ID-3941): 1 µg/mL (≈ 0.733 µM)
  MIC Staphylococcus aureus (ATCC 29213): 1 µg/mL (≈ 0.733 µM)
  MIC Staphylococcus aureus (GC 1131): 2 µg/mL (≈ 1.47 µM)
  MIC Staphylococcus aureus (GC 4541): 2 µg/mL (≈ 1.47 µM)
  MIC Staphylococcus aureus (GC 4542): 1 µg/mL (≈ 0.733 µM)
  MIC Staphylococcus aureus (GC 4544): 2 µg/mL (≈ 1.47 µM)
  MIC Staphylococcus aureus (GC 4545): 1 µg/mL (≈ 0.733 µM)
  MIC Staphylococcus aureus-SMITH (GC 4543): 1 µg/mL (≈ 0.733 µM)
  MIC Staphylococcus haemolyticus (GC 4546): 1 µg/mL (≈ 0.733 µM)
Staphylococcus sp.; [9]
  MIC Staphylococcus aureus (GC 1131): 2 µg/mL (≈ 1.47 µM)
Staphylococcus sp.; strain ATCC 29213
  MIC Staphylococcus aureus (ATCC 29213): 1 µg/mL (≈ 0.733 µM)
Staphylococcus sp.; strain GC 4541
  MIC Staphylococcus aureus (GC 4541): 2 µg/mL (≈ 1.47 µM)
Staphylococcus sp.; strain GC 4542
  MIC Staphylococcus aureus (GC 4542): 1 µg/mL (≈ 0.733 µM)
Staphylococcus sp.; strain GC 4544
  MIC Staphylococcus aureus (GC 4544): 2 µg/mL (≈ 1.47 µM)
Staphylococcus sp.; strain GC 4545
  MIC Staphylococcus aureus (GC 4545): 1 µg/mL (≈ 0.733 µM)
Staphylococcus sp.; strain GC 4546
  MIC Staphylococcus haemolyticus (GC 4546): 1 µg/mL (≈ 0.733 µM)
Staphylococcus sp.; strain GC 4547
  MIC Coagulase Negative Staphylococcus (GC 4547): 1 µg/mL (≈ 0.733 µM)
Staphylococcus sp.; strain GC 4548
  MIC Coagulase Negative Staphylococcus (GC 4548): 1 µg/mL (≈ 0.733 µM)
Staphylococcus sp.; strain GC 4549
  MIC Coagulase Negative Staphylococcus (GC 4549): 1 µg/mL (≈ 0.733 µM)
Staphylococcus sp.; strain GC 4551
  MIC Coagulase Negative Staphylococcus (GC 4551): 1 µg/mL (≈ 0.733 µM)
Staphylococcus sp.; strain ID-3941
  MIC Coagulase Negative Staphylococcus (ID-3941): 1 µg/mL (≈ 0.733 µM)
Staphylococcus sp.; strain SMITH GC 4543
  MIC Staphylococcus aureus-SMITH (GC 4543): 1 µg/mL (≈ 0.733 µM)

## CCCCCC1OCC2OC(OC3C(CO)OC(Oc4ccc(CC5NC(=O)C(C(C)c6ccccc6)NC(=O)CNC(=O)C(CO)NC(=O)C(C(O)C6CNC(=N)N6C6OC(CO)C(O)C(O)C6O)NC(=O)C(C(O)C6CNC(=N)N6)NC5=O)cc4)C(O)C3O)C(O)C(O)C2O1 (stereo not drawn) [Example 108, Cyclo[glycyl-β-methylphenylalanyl-O-[4-O-(4,6-O-hexylidenehexopyranosyl)hexopyranosyl]-tyrosyl-3-(2-iminoimidazolidin-4-yl)seryl-3-(3-hexopyranosyl-2-iminoimidazolidin-4-yl)-serylseryl]]
Escherichia coli
  MIC Escherichia coli (ATCC 25922): 32 µg/mL (≈ 23.2 µM)
Enterococcus sp.; Enterococcus avium (GC 4558)
  MIC Enterococcus avium (GC 4558): 2 µg/mL (≈ 1.45 µM)
Enterococcus sp.; [1]
  MIC Enterococcus faecalis (ATCC 29212): 2 µg/mL (≈ 1.45 µM)
Enterococcus sp.; [2]
  MIC Enterococcus faecalis (GC 2242): 2 µg/mL (≈ 1.45 µM)
Enterococcus sp.; [3]
  MIC Enterococcus faecalis (GC 4552): 2 µg/mL (≈ 1.45 µM)
Enterococcus sp.; [4]
  MIC Enterococcus faecalis (GC 4553): 2 µg/mL (≈ 1.45 µM)
Enterococcus sp.; [5]
  MIC Enterococcus faecalis (GC 4554): 2 µg/mL (≈ 1.45 µM)
Enterococcus sp.; Enterococcus faecium (GC 2243)
  MIC Enterococcus faecium (GC 2243): 2 µg/mL (≈ 1.45 µM)
Enterococcus sp.; Enterococcus faecium (GC 4556)
  MIC Enterococcus faecium (GC 4556): 2 µg/mL (≈ 1.45 µM)
Enterococcus sp.; Enterococcus faecium (GC 4557)
  MIC Enterococcus faecium (GC 4557): 1 µg/mL (≈ 0.726 µM)
Enterococcus sp.; strain ATCC 29212
  MIC Enterococcus faecalis (ATCC 29212): 2 µg/mL (≈ 1.45 µM)
Enterococcus sp.; strain GC 2242
  MIC Enterococcus faecalis (GC 2242): 2 µg/mL (≈ 1.45 µM)
Enterococcus sp.; strain GC 2243
  MIC Enterococcus faecium (GC 2243): 2 µg/mL (≈ 1.45 µM)
Enterococcus sp.; strain GC 4552
  MIC Enterococcus faecalis (GC 4552): 2 µg/mL (≈ 1.45 µM)
Enterococcus sp.; strain GC 4553
  MIC Enterococcus faecalis (GC 4553): 2 µg/mL (≈ 1.45 µM)
Enterococcus sp.; strain GC 4554
  MIC Enterococcus faecalis (GC 4554): 2 µg/mL (≈ 1.45 µM)
Enterococcus sp.; strain GC 4556
  MIC Enterococcus faecium (GC 4556): 2 µg/mL (≈ 1.45 µM)
Enterococcus sp.; strain GC 4557
  MIC Enterococcus faecium (GC 4557): 1 µg/mL (≈ 0.726 µM)
Enterococcus sp.; strain GC 4558
  MIC Enterococcus avium (GC 4558): 2 µg/mL (≈ 1.45 µM)
Streptococcus sp.; [6]
  MIC Streptococcus agalactiae (GC 4564): <0.5 µg/mL
Streptococcus sp.; [7]
  MIC Streptococcus pneumoniae (GC 4565): <0.5 µg/mL
Streptococcus sp.; [8]
  MIC Streptococcus pyogenes (ID-3187): <0.5 µg/mL
Streptococcus sp.; strain GC 4564
  MIC Streptococcus agalactiae (GC 4564): <0.5 µg/mL
Streptococcus sp.; strain GC 4565
  MIC Streptococcus pneumoniae (GC 4565): <0.5 µg/mL
Streptococcus sp.; strain ID-3187
  MIC Streptococcus pyogenes (ID-3187): <0.5 µg/mL
Staphylococcus sp.
  MIC Coagulase Negative Staphylococcus (GC 4547): 1 µg/mL (≈ 0.726 µM)
  MIC Coagulase Negative Staphylococcus (GC 4548): <0.5 µg/mL
  MIC Coagulase Negative Staphylococcus (GC 4549): 1 µg/mL (≈ 0.726 µM)
  MIC Coagulase Negative Staphylococcus (GC 4551): 1 µg/mL (≈ 0.726 µM)
  MIC Coagulase Negative Staphylococcus (ID-3941): 1 µg/mL (≈ 0.726 µM)
  MIC Staphylococcus aureus (ATCC 29213): 1 µg/mL (≈ 0.726 µM)
  MIC Staphylococcus aureus (GC 1131): 1 µg/mL (≈ 0.726 µM)
  MIC Staphylococcus aureus (GC 4541): 1 µg/mL (≈ 0.726 µM)
  MIC Staphylococcus aureus (GC 4542): 1 µg/mL (≈ 0.726 µM)
  MIC Staphylococcus aureus (GC 4544): 1 µg/mL (≈ 0.726 µM)
  MIC Staphylococcus aureus (GC 4545): 1 µg/mL (≈ 0.726 µM)
  MIC Staphylococcus aureus-SMITH (GC 4543): 1 µg/mL (≈ 0.726 µM)
  MIC Staphylococcus haemolyticus (GC 4546): 1 µg/mL (≈ 0.726 µM)
Staphylococcus sp.; [9]
  MIC Staphylococcus aureus (GC 1131): 1 µg/mL (≈ 0.726 µM)
Staphylococcus sp.; strain ATCC 29213
  MIC Staphylococcus aureus (ATCC 29213): 1 µg/mL (≈ 0.726 µM)
Staphylococcus sp.; strain GC 4541
  MIC Staphylococcus aureus (GC 4541): 1 µg/mL (≈ 0.726 µM)
Staphylococcus sp.; strain GC 4542
  MIC Staphylococcus aureus (GC 4542): 1 µg/mL (≈ 0.726 µM)
Staphylococcus sp.; strain GC 4544
  MIC Staphylococcus aureus (GC 4544): 1 µg/mL (≈ 0.726 µM)
Staphylococcus sp.; strain GC 4545
  MIC Staphylococcus aureus (GC 4545): 1 µg/mL (≈ 0.726 µM)
Staphylococcus sp.; strain GC 4546
  MIC Staphylococcus haemolyticus (GC 4546): 1 µg/mL (≈ 0.726 µM)
Staphylococcus sp.; strain GC 4547
  MIC Coagulase Negative Staphylococcus (GC 4547): 1 µg/mL (≈ 0.726 µM)
Staphylococcus sp.; strain GC 4548
  MIC Coagulase Negative Staphylococcus (GC 4548): <0.5 µg/mL
Staphylococcus sp.; strain GC 4549
  MIC Coagulase Negative Staphylococcus (GC 4549): 1 µg/mL (≈ 0.726 µM)
Staphylococcus sp.; strain GC 4551
  MIC Coagulase Negative Staphylococcus (GC 4551): 1 µg/mL (≈ 0.726 µM)
Staphylococcus sp.; strain ID-3941
  MIC Coagulase Negative Staphylococcus (ID-3941): 1 µg/mL (≈ 0.726 µM)
Staphylococcus sp.; strain SMITH GC 4543
  MIC Staphylococcus aureus-SMITH (GC 4543): 1 µg/mL (≈ 0.726 µM)

Reference: patent US6914045B2, “Glycopeptide antibiotics” (Wyeth Holdings Corporation, priority 2001, dated 2005)
